Laboratory results published in patent US20080021026A1, “BENZOTHIOPHENE INHIBITORS OF RHO KINASE” (priority 2006, published 2008).
pIC50: −log10 of the molar value.

Target: T1, recombinant N-terminal GST-tagged human Rho kinase 2 (ROCK2, amino acids 1-552) (Homo sapiens, UniProt O75116)
T1 construct: ROCK2, amino acids 1-552; purchased Invitrogen Inc. PV3759
Assay: In vitro Rho kinase assay (luciferase-based ATP consumption), ROCK2
Type: biochemical
Settings: recombinant GST-tagged human ROCK2, luciferase-based ATP consumption; read-out: ROCK2 IC50
How it was run: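 Luciferase-based luminescence of leftover ATP after 2 h at 30 °C, where inhibition raises signal, reports activity of GST-tagged ROCK2 (aa 1-552) at 0.82 μg/ml. Conditions: S6 peptide 100 μg/ml, […], pH 7.5 Tris buffer. Results given as percent of H-1152P control activity.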

T1 sequence (O75116 1-552): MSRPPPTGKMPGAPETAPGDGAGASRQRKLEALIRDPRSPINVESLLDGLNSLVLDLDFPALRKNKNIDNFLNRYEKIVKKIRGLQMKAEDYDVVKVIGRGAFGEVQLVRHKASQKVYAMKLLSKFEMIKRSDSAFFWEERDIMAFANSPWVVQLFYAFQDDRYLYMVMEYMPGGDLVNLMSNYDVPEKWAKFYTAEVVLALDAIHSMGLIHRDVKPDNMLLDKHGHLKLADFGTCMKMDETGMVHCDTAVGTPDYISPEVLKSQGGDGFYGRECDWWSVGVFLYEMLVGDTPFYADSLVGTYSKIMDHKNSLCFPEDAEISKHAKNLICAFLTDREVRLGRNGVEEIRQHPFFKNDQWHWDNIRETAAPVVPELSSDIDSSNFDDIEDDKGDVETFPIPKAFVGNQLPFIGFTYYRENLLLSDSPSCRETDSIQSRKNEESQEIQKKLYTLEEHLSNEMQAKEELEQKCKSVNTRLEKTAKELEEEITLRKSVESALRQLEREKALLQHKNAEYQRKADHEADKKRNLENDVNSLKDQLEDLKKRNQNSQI

Row | Structure (SMILES) | pIC50
1 | Cc1c(-c2ccnc(N)n2)sc2ccc(C(=O)N3CCOCC3)cc12 [Example 466, Cc1c(sc2ccc(cc12)C(═O)N3CCOCC3)-c4ccnc(N)n4] | > 5.30
2 | Cc1c(-c2ccnc(N)n2)sc2ccc(C(=O)N3CCSC3)cc12 [Example 471, Cc1c(sc2ccc(cc12)C(═O)N3CCSC3)-c4ccnc(N)n4] | > 5.30
3 | Cc1c(-c2ccnc(N)n2)sc2ccc(C(=O)N3CCC(C)CC3)cc12 [Example 473, CC1CCN(CC1)C(═O)c2ccc3sc(c(C)c3c2)-c4ccnc(N)n4] | > 5.30
4 | Cc1c(-c2ccnc(N)n2)sc2ccc(C(=O)N3CCN(C)CC3)cc12 [Example 474, CN1CCN(CC1)C(═O)c2ccc3sc(c(C)c3c2)-c4ccnc(N)n4] | > 5.30
5 | Cc1c(-c2ccnc(N)n2)sc2ccc(C(=O)N3CCSCC3)cc12 [Example 479, Cc1c(sc2ccc(cc12)C(═O)N3CCSCC3)-c4ccnc(N)n4] | > 5.30
6 | Cc1c(-c2ccnc(N)n2)sc2ccc(C(=O)N3CC(C)CC(C)C3)cc12 (stereo not drawn) [Example 481, CC1CC(C)CN(C1)C(═O)c2ccc3sc(c(C)c3c2)-c4ccnc(N)n4] | > 5.30
7 | Cc1c(-c2ccnc(N)n2)sc2ccc(C(=O)N3C[C@@H](C)N[C@@H](C)C3)cc12 [Example 485, C[C@@H]1CN(C[C@H](C)N1)C(═O)c2ccc3sc(c(C)c3c2)-c4ccnc(N)n4] | > 5.30
8 | Cc1c(-c2ccnc(N)n2)sc2ccc(C(=O)N3CC(C)OC(C)C3)cc12 (stereo not drawn) [Example 488, CC1CN(CC(C)O1)C(═O)c2ccc3sc(c(C)c3c2)-c4ccnc(N)n4] | > 5.30
9 | CCN(CCCCO)C(=O)c1ccc2sc(-c3ccnc(N)n3)c(C)c2c1 [Example 490, CCN(CCCCO)C(═O)c1ccc2sc(c(C)c2c1)-c3ccnc(N)n3] | > 5.30
10 | Cc1c(-c2ccnc(N)n2)sc2ccc(C(=O)N3Cc4ccccc4C3)cc12 [Example 491, Cc1c(sc2ccc(cc12)C(═O)N3Cc4ccccc4C3)-c5ccnc(N)n5] | > 5.30
11 | Cc1c(-c2ccnc(N)n2)sc2ccc(C(=O)N(C)Cc3ccccc3)cc12 [Example 492, CN(Cc1ccccc1)C(═O)c2ccc3sc(c(C)c3c2)-c4ccnc(N)n4] | > 5.30
12 | CC(=O)N[C@H]1CCN(C(=O)c2ccc3sc(-c4ccnc(N)n4)c(C)c3c2)C1 [Example 495, CC(═O)N[C@H]1CCN(C1)C(═O)c2ccc3sc(c(C)c3c2)-c4ccnc(N)n4] | < 5.30
13 | Cc1c(-c2ccnc(N)n2)sc2ccc(C(=O)N3CCc4ccccc4C3)cc12 [Example 498, Cc1c(sc2ccc(cc12)C(═O)N3CCc4ccccc4C3)-c5ccnc(N)n5] | > 5.30
14 | CCN(Cc1ccccc1)C(=O)c1ccc2sc(-c3ccnc(N)n3)c(C)c2c1 [Example 499, CCN(Cc1ccccc1)C(═O)c2ccc3sc(c(C)c3c2)-c4ccnc(N)n4] | > 5.30
15 | Cc1c(-c2ccnc(N)n2)sc2ccc(C(=O)N(C)CCc3ccccc3)cc12 [Example 500, CN(CCc1ccccc1)C(═O)c2ccc3sc(c(C)c3c2)-c4ccnc(N)n4] | > 5.30
16 | Cc1c(-c2ccnc(N)n2)sc2ccc(C(=O)N(C)CCc3ccccn3)cc12 [Example 501, CN(CCc1ccccn1)C(═O)c2ccc3sc(c(C)c3c2)-c4ccnc(N)n4] | < 5.30
17 | COC(=O)C1CCN(C(=O)c2ccc3sc(-c4ccnc(N)n4)c(C)c3c2)CC1 [Example 504, COC(═O)C1CCN(CC1)C(═O)c2ccc3sc(c(C)c3c2)-c4ccnc(N)n4] | < 5.30
18 | Cc1c(-c2ccnc(N)n2)sc2ccc(C(=O)N(Cc3ccccc3)C(C)C)cc12 [Example 505, CC(C)N(Cc1ccccc1)C(═O)c2ccc3sc(c(C)c3c2)-c4ccnc(N)n4] | > 5.30
19 | Cc1c(-c2ccnc(N)n2)sc2ccc(C(=O)N(CCO)Cc3ccccc3)cc12 [Example 506, Cc1c(sc2ccc(cc12)C(═O)N(CCO)Cc3ccccc3)-c4ccnc(N)n4] | > 5.30
20 | Cc1c(-c2ccnc(N)n2)sc2ccc(C(=O)N(C)CC(O)c3ccccc3)cc12 (stereo not drawn) [Example 507, CN(CC(O)c1ccccc1)C(═O)c2ccc3sc(c(C)c3c2)-c4ccnc(N)n4] | > 5.30
21 | CCOC(=O)C1CCN(C(=O)c2ccc3sc(-c4ccnc(N)n4)c(C)c3c2)CC1 [Example 509, CCOC(═O)C1CCN(CC1)C(═O)c2ccc3sc(c(C)c3c2)-c4ccnc(N)n4] | < 5.30
22 | CCOC(=O)N1CCN(C(=O)c2ccc3sc(-c4ccnc(N)n4)c(C)c3c2)CC1 [Example 511, CCOC(═O)N1CCN(CC1)C(═O)c2ccc3sc(c(C)c3c2)-c4ccnc(N)n4] | < 5.30
23 | Cc1c(-c2ccnc(N)n2)sc2ccc(C(=O)N(CCC#N)Cc3cccnc3)cc12 [Example 512, Cc1c(sc2ccc(cc12)C(═O)N(CCC#N)Cc3cccnc3)-c4ccnc(N)n4] | > 5.30
24 | Cc1c(-c2ccnc(N)n2)sc2ccc(C(=O)N3CCN(c4ccccc4)CC3)cc12 [Example 513, Cc1c(sc2ccc(cc12)C(═O)N3CCN(CC3)c4ccccc4)-c5ccnc(N)n5] | > 5.30

Further lines, results first:

Row | pIC50 | Structure (SMILES)
25 | > 5.30 | CCN(CC)C(=O)c1ccc2sc(-c3ccnc(N)n3)c(C)c2c1 [Example 462, CCN(CC)C(═O)c1ccc2sc(c(C)c2c1)-c3ccnc(N)n3]
26 | > 5.30 | CCCN(C)C(=O)c1ccc2sc(-c3ccnc(N)n3)c(C)c2c1 [Example 463, CCCN(C)C(═O)c1ccc2sc(c(C)c2c1)-c3ccnc(N)n3]
27 | > 5.30 | Cc1c(-c2ccnc(N)n2)sc2ccc(C(=O)N(C)CCO)cc12 [Example 464, CN(CCO)C(═O)c1ccc2sc(c(C)c2c1)-c3ccnc(N)n3]
28 | > 5.30 | Cc1c(-c2ccnc(N)n2)sc2ccc(C(=O)N(C)CCC#N)cc12 [Example 465, CN(CCC#N)C(═O)c1ccc2sc(c(C)c2c1)-c3ccnc(N)n3]
29 | > 5.30 | Cc1c(-c2ccnc(N)n2)sc2ccc(C(=O)N(C)CC(C)C)cc12 [Example 467, CC(C)CN(C)C(═O)c1ccc2sc(c(C)c2c1)-c3ccnc(N)n3]
30 | > 5.30 | CCN(C(=O)c1ccc2sc(-c3ccnc(N)n3)c(C)c2c1)C(C)C [Example 468, CCN(C(C)C)C(═O)c1ccc2sc(c(C)c2c1)-c3ccnc(N)n3]
31 | > 5.30 | CCCCN(C)C(=O)c1ccc2sc(-c3ccnc(N)n3)c(C)c2c1 [Example 469, CCCCN(C)C(═O)c1ccc2sc(c(C)c2c1)-c3ccnc(N)n3]
32 | > 5.30 | CCN(CCO)C(=O)c1ccc2sc(-c3ccnc(N)n3)c(C)c2c1 [Example 470, CCN(CCO)C(═O)c1ccc2sc(c(C)c2c1)-c3ccnc(N)n3]
33 | > 5.30 | Cc1c(-c2ccnc(N)n2)sc2ccc(C(=O)N3CCCCC3C)cc12 (stereo not drawn) [Example 472, CC1CCCCN1C(═O)c2ccc3sc(c(C)c3c2)-c4ccnc(N)n4]
34 | > 5.30 | Cc1c(-c2ccnc(N)n2)sc2ccc(C(=O)N3CCCC3CO)cc12 (stereo not drawn) [Example 475, Cc1c(sc2ccc(cc12)C(═O)N3CCCC3CO)-c4ccnc(N)n4]
35 | > 5.30 | Cc1c(-c2ccnc(N)n2)sc2ccc(C(=O)N3CCC[C@@H]3CO)cc12 [Example 476, Cc1c(sc2ccc(cc12)C(═O)N3CCC[C@@H]3CO)-c4ccnc(N)n4]
36 | > 5.30 | CCCCN(CC)C(=O)c1ccc2sc(-c3ccnc(N)n3)c(C)c2c1 [Example 477, CCCCN(CC)C(═O)c1ccc2sc(c(C)c2c1)-c3ccnc(N)n3]
37 | > 5.30 | CCCN(CCC)C(=O)c1ccc2sc(-c3ccnc(N)n3)c(C)c2c1 [Example 478, CCCN(CCC)C(═O)c1ccc2sc(c(C)c2c1)-c3ccnc(N)n3]
38 | > 5.30 | Cc1c(-c2ccnc(N)n2)sc2ccc(C(=O)N(CCO)CCO)cc12 [Example 480, Cc1c(sc2ccc(cc12)C(═O)N(CCO)CCO)-c3ccnc(N)n3]
39 | > 5.30 | Cc1c(-c2ccnc(N)n2)sc2ccc(C(=O)N(C)C3CCCCC3)cc12 [Example 482, CN(C1CCCCC1)C(═O)c2ccc3sc(c(C)c3c2)-c4ccnc(N)n4]
40 | < 5.30 | Cc1c(-c2ccnc(N)n2)sc2ccc(C(=O)N3C(C)CCCC3C)cc12 (stereo not drawn) [Example 483, CC1CCCC(C)N1C(═O)c2ccc3sc(c(C)c3c2)-c4ccnc(N)n4]
41 | > 5.30 | Cc1c(-c2ccnc(N)n2)sc2ccc(C(=O)N3CCC(N(C)C)C3)cc12 (stereo not drawn) [Example 484, CN(C)C1CCN(C1)C(═O)c2ccc3sc(c(C)c3c2)-c4ccnc(N)n4]
42 | > 5.30 | Cc1c(-c2ccnc(N)n2)sc2ccc(C(=O)N3CCCC(CO)C3)cc12 (stereo not drawn) [Example 486, Cc1c(sc2ccc(cc12)C(═O)N3CCCC(CO)C3)-c4ccnc(N)n4]
43 | < 5.30 | COC[C@@H]1CCCN1C(=O)c1ccc2sc(-c3ccnc(N)n3)c(C)c2c1 [Example 487, COC[C@@H]1CCCN1C(═O)c2ccc3sc(c(C)c3c2)-c4ccnc(N)n4]
44 | > 5.30 | Cc1c(-c2ccnc(N)n2)sc2ccc(C(=O)N3CCCCC3CO)cc12 (stereo not drawn) [Example 489, Cc1c(sc2ccc(cc12)C(═O)N3CCCCC3CO)-c4ccnc(N)n4]
45 | > 5.30 | CCN(C(=O)c1ccc2sc(-c3ccnc(N)n3)c(C)c2c1)C1CCCCC1 [Example 493, CCN(C1CCCCC1)C(═O)c2ccc3sc(c(C)c3c2)-c4ccnc(N)n4]
46 | < 5.30 | Cc1c(-c2ccnc(N)n2)sc2ccc(C(=O)N3CCC(C(N)=O)CC3)cc12 [Example 494, Cc1c(sc2ccc(cc12)C(═O)N3CCC(CC3)C(N)═O)-c4ccnc(N)n4]
47 | > 5.30 | Cc1c(-c2ccnc(N)n2)sc2ccc(C(=O)N3CCCC(C(N)=O)C3)cc12 (stereo not drawn) [Example 496, Cc1c(sc2ccc(cc12)C(═O)N3CCCC(C3)C(N)═O)-c4ccnc(N)n4]
48 | < 5.30 | Cc1c(-c2ccnc(N)n2)sc2ccc(C(=O)N3CCCCC3CCO)cc12 (stereo not drawn) [Example 497, Cc1c(sc2ccc(cc12)C(═O)N3CCCCC3CCO)-c4ccnc(N)n4]
49 | < 5.30 | Cc1c(-c2ccnc(N)n2)sc2ccc(C(=O)N3CCCC4CCCCC43)cc12 (stereo not drawn) [Example 502, Cc1c(sc2ccc(cc12)C(═O)N3CCCC4CCCCC34)-c5ccnc(N)n5]
50 | > 5.30 | C=CCN(C(=O)c1ccc2sc(-c3ccnc(N)n3)c(C)c2c1)C1CCCCC1 [Example 503, Cc1c(sc2ccc(cc12)C(═O)N(CC═C)C3CCCCC3)-c4ccnc(N)n4]
51 | > 5.30 | CCOC(=O)C1CCCN(C(=O)c2ccc3sc(-c4ccnc(N)n4)c(C)c3c2)C1 (stereo not drawn) [Example 510, CCOC(═O)C1CCCN(C1)C(═O)c2ccc3sc(c(C)c3c2)-c4ccnc(N)n4]
